# Patent US6197535A, “Methods for purifying and assaying a conus γ-carboxylase” (University of Utah Research Foundation, priority 1999, dated 2001)
# No end group written: not given here.
# Key:
# Type in all cases: biochemical
# [1] = tested on: Conus γ-glutamyl carboxylase (Conus radiatus venom duct microsomes); conditions: for IC50: read-out: apparent IC50; for Km: read-out: apparent Km
# [2] = target: T1, bovine microsomal γ-glutamyl carboxylase (Bos taurus, UniProt Q07175)
# T1 construct: For experiments with bovine microsomes, 380 μg of microsomal protein was present in each reaction; from tissue; host or cells: bovine microsomes, gift of Dr. D. W. Stafford
# T1 sequence (Q07175 1-758): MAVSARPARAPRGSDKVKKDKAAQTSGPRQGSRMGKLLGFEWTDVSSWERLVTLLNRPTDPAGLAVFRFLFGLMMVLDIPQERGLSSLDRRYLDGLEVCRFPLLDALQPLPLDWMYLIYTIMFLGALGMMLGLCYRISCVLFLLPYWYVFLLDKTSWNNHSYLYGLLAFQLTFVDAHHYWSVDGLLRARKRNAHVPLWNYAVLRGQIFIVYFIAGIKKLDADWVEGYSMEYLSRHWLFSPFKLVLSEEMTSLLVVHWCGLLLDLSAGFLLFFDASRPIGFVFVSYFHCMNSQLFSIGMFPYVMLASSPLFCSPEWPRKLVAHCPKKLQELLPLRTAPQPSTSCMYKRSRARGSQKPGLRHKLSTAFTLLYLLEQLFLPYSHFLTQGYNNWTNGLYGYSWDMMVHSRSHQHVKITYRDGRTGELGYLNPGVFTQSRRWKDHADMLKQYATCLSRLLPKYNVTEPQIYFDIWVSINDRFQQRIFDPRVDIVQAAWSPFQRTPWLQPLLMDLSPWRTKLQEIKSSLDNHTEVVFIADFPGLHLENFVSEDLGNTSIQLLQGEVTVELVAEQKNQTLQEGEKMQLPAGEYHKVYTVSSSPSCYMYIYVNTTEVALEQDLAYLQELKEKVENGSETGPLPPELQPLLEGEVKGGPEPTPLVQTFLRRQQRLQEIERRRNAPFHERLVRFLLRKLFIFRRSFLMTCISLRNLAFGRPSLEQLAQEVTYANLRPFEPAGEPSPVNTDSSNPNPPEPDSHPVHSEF
# Conus γ-carboxylase = tested on: Conus γ-carboxylase
substance,measurement,setting,value
GTGTLDDGGALTERRSADAT [Pro (-60 to -41)],effect on the carboxylation of FLEEL or E.ConG,[1],no effect
same,inhibition of carboxylation of -10.Pro-E.Con-G,[1],did not inhibit
same,IC50,[1],> 1000 µM
ALKAEPVLLQKSAARSTDDN [Pro (-40 to -21)],effect on the carboxylation of FLEEL or E.ConG,[1],no effect
same,inhibition of carboxylation of -10.Pro-E.Con-G,[1],did not inhibit
same,IC50,[1],> 1000 µM
KSAARSTDDNGKDRLTQMKRILKQRGNKAR [Pro (-30 to -1)],IC50,[1],200 µM
FLEEL [reference compound],pmol 14CO2 Incorporated,[2],249 pmol
same,pmol 14CO2 Incorporated,[1],818 pmol
same,Km,[1],301 ± 6 µM
ILKQRGNKARGEEELQENQELIREKSN-NH2 [-10.Pro-E.Con-G],Km,[1],1840 ± 109 µM
GKDRLTQMKRILKQRGNKARGEEELQENQELIREKSN-NH2 [-20.Pro-E.Con-G],pmol 14CO2 Incorporated,[2],3 pmol
same,"substrate quality for γ-carboxylation, mammalian enzyme",[2],extremely poor
same,Glu residues carboxylated (Gla analysis of reaction product),Conus γ-carboxylase,"Glu2 was not carboxylated. The rest of the Glu residues were carboxylated, although Glu14 was not efficiently carboxylated"
same,pmol 14CO2 Incorporated,[1],2741 pmol
same,"substrate quality for γ-carboxylation, Conus enzyme",[1],excellent substrate
same,Km,[1],28 ± 3 µM
GKDRLTQMKRILKQRGNKARFLEEL-NH2 [-20.Pro-FLEEL],Km,[1],4 µM
